The supplement of paper PMC5844555

Legend:
Experiment in all cases: 3' UTR reporter interaction score (median-centred robust z-score of log2 firefly/Renilla activity); higher = less repression of the 3' UTR reporter
Details in all cases: HEK293T; 48 h
PHOX2B = test system: PHOX2B
Summary of the method: (§1)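 Using DharmaFECT Duo, HEK293T cells (10,000/well, 96-well plates) were co-transfected with 2.5 pmol miRNA mimic, 100 ng firefly luc2P reporter containing the gene's 3' UTR and 20 ng Renilla pRL-TK control, and dual-luciferase activity was read 48 h later. The interaction score is the log firefly/Renilla ratio as a per-plate robust z-score (median, median absolute deviation), median-centred per miRNA, averaged over at least two independent screens; lower, more negative values indicate interaction.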

FBXW7 = test system: FBXW7
Summary of the method: as §1

BRCA2 = test system: BRCA2
Summary of the method: as §1

PHF6 = test system: PHF6
Summary of the method: as §1

MYT1L = test system: MYT1L
Summary of the method: as §1

TP53 = test system: TP53
Summary of the method: as §1

MYCN = test system: MYCN
Summary of the method: as §1

RB1 = test system: RB1
Summary of the method: as §1

MYB = test system: MYB
Summary of the method: as §1

ZEB2 = test system: ZEB2
Summary of the method: as §1

HRAS = test system: HRAS
Summary of the method: as §1

EZH2 = test system: EZH2
Summary of the method: as §1

MYC = test system: MYC
Summary of the method: as §1

NOTCH1 = test system: NOTCH1
Summary of the method: as §1

Row | Sequence | 3' UTR reporter interaction score (PHOX2B) | 3' UTR reporter interaction score (FBXW7) | 3' UTR reporter interaction score (BRCA2) | 3' UTR reporter interaction score (PHF6) | 3' UTR reporter interaction score (MYT1L) | 3' UTR reporter interaction score (TP53) | 3' UTR reporter interaction score (MYCN) | 3' UTR reporter interaction score (RB1) | 3' UTR reporter interaction score (MYB) | 3' UTR reporter interaction score (ZEB2) | 3' UTR reporter interaction score (HRAS) | 3' UTR reporter interaction score (EZH2) | 3' UTR reporter interaction score (MYC) | 3' UTR reporter interaction score (NOTCH1)
1 | UACUGCAUCAGGAACUGAUUGGAU | 0.00207 | 0.0205 | -0.471 | -2.18 | 1.06 | -0.963 | 0.685 | 1.24 | -0.822 | -0.414 | 0.0273 | -1.49 | 0.358 | 0.0506
2 | AAAGUGCUUCCUUUUAGAGGGUU | 0.533 | 1.34 | -0.282 | 0.00103 | -0.468 | -0.295 | -0.338 | 1.13 | -0.903 | 0.894 | 0.0494 | -1.12 | -0.227 | 0.779
3 | UAUACAAGGGCAAGCUCUCUGU | 0.912 | 0.144 | -0.0857 | 0.0525 | 0.075 | -0.221 | -1.08 | 0.0344 | 0.159 | -0.506 | 0.186 | -0.739 | 0.32 | -0.0974
4 | AAUGGCGCCACUAGGGUUGUGCA | 1.04 | -0.576 | -0.437 | 0.0523 | -0.00801 | -0.436 | 0.439 | -0.957 | 0.208 | 0.407 | -0.363 | -0.534 | -0.44 | -0.589
5 | AAAGUGCUUCCCUUUGGACUGU | 0.0276 | 1.67 | 0.671 | 1.36 | -1.48 | 0.0148 | -0.799 | 1.36 | -1.07 | -0.113 | 0.194 | -0.72 | -0.227 | 1.13
6 | UGUGUCACUCGAUGACCACUGU | 0.976 | 1.58 | 0.0202 | -0.745 | -1.73 | 0.4 | 0.203 | -0.876 | -0.364 | 0.295 | 1.13 | 1.04 | 0.947 | -1.12
7 | CUGGACUUGGAGUCAGAAGGCC | 0.64 | -1.21 | -0.913 | 0.484 | 1.12 | -0.688 | 0.91 | -0.493 | 1.36 | 1.96 | 0.243 | -1.01 | -0.585 | -1.42
8 | AUUACAUGGCCAAUCUC | 1.43 | 0.611 | -0.25 | -0.0228 | -0.267 | 0.293 | 0.193 | -1.24 | 0.0435 | -0.413 | -0.228 | -0.208 | 0.104 | 0.461
9 | AGACCUGGCCCAGACCUCAGC | -0.381 | 0.099 | -0.79 | -0.218 | -3.18 | 0.562 | 0.863 | -2.21 | 0.0206 | -0.702 | -0.381 | 0.316 | 0.0891 | -0.568
10 | AAAAGUGCUUACAGUGCAGGUAGC | -0.496 | -0.263 | 0.703 | 1.56 | -1.75 | -0.24 | -0.211 | 0.176 | -0.0116 | 0.747 | 0.892 | -0.783 | 0.278 | 0.451
11 | UGAGGUAGUAAGUUGUAUUGUU | -0.47 | 0.412 | 0.117 | -0.107 | 0.292 | -0.165 | -4.78 | 0.186 | 0.37 | 0.389 | 0.519 | -3.5 | -2.7 | 0.263
12 | AGACUUCCCAUUUGAAGGUGGC | 0.285 | 0.497 | -0.566 | 1.01 | 0.482 | -0.0594 | -2.21 | 0.0148 | 0.287 | 0.705 | -0.109 | 0.311 | -0.381 | -0.842
13 | CUGACCUAUGAAUUGACAGCC | -1.28 | -0.577 | -0.668 | -3.78 | 0.445 | 0.334 | 1.31 | -2.94 | 0.682 | -6.22 | 0.344 | -0.124 | 1.2 | 0.282
14 | ACUGCCCUAAGUGCUCCUUCU | 0.63 | 0.408 | -0.325 | -0.374 | 0.161 | 0.48 | 1.21 | -0.147 | -0.35 | -0.687 | -0.229 | 0.0537 | 0.276 | -0.46
15 | AGUGGGGAACCCUUCCAUGAGGA | -0.69 | 0.423 | 0.0202 | 0.14 | -1.79 | -3.21 | 0.0621 | 0.472 | 0.186 | 1.02 | 0.144 | -0.974 | -0.465 | -0.0192
16 | CUGGACUUAGGGUCAGAAGGCC | 1.18 | -0.885 | -1.05 | 0.77 | 0.968 | -0.836 | 0.447 | 1.37 | 1.31 | 2.31 | 0.067 | -0.857 | -0.781 | -1.28
17 | UGAGACCUCUGGGUUCUGAGCU | -0.781 | 0.371 | -3.69 | -0.429 | 0.762 | -1.24 | 0.725 | 0.176 | -1.3 | 1.27 | -0.0086 | 1.01 | 0.551 | 0.17
18 | GAAGUUGUUCGUGGUGGAUUCG | -0.358 | -1.37 | 0.514 | -0.491 | -1.32 | -1.17 | -0.332 | 1.05 | 0.448 | 0.478 | 0.113 | -2.16 | 0.185 | 0.409
19 | CCCAGAUAAUGGCACUCUCAA | 0.745 | -0.29 | 0.00154 | -0.296 | 0.0372 | -0.804 | -0.998 | -2.36 | 0.409 | 0.427 | 0.111 | 0.0427 | 0.82 | -0.834
